Measured values as given in EP3154958B1, “PHOSPHATIDYLINOSITOL 3-KINASE INHIBITORS” (Gilead Sciences, Inc., priority 2014, dated 2015).

What was measured:
Assay type in all cases: biochemical
PI3Kδ = molecular target: T1, PI3Kδ (Homo sapiens, UniProt O00329); assay: TR-FRET enzymatic activity assay, PI3Kδ; conditions: recombinant heterodimeric PI3Kδ 25-50 pM, 2× Km ATP, 30 minutes at 25°C
T1 construct: made in house
How it was run: (§1)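 Read-out is TR-FRET. The assay scores enzymatic activity of the individual PI3K isoforms in the presence of compound.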

PI3Kγ = molecular target: T2, PI3Kγ (Homo sapiens, UniProt P48736); assay: TR-FRET enzymatic activity assay, PI3Kγ; conditions: recombinant heterodimeric PI3Kγ 2 nM, 2× Km ATP, 30 minutes at 25°C
T2 construct: made in house
How it was run: as §1

PI3Kβ = molecular target: T3, PI3Kβ (Homo sapiens, UniProt P42338); assay: TR-FRET enzymatic activity assay, PI3Kβ; conditions: recombinant heterodimeric PI3Kβ 25-50 pM, 2× Km ATP, 30 minutes at 25°C
T3 construct: made in house
How it was run: as §1

T3 sequence (P42338 whole entry): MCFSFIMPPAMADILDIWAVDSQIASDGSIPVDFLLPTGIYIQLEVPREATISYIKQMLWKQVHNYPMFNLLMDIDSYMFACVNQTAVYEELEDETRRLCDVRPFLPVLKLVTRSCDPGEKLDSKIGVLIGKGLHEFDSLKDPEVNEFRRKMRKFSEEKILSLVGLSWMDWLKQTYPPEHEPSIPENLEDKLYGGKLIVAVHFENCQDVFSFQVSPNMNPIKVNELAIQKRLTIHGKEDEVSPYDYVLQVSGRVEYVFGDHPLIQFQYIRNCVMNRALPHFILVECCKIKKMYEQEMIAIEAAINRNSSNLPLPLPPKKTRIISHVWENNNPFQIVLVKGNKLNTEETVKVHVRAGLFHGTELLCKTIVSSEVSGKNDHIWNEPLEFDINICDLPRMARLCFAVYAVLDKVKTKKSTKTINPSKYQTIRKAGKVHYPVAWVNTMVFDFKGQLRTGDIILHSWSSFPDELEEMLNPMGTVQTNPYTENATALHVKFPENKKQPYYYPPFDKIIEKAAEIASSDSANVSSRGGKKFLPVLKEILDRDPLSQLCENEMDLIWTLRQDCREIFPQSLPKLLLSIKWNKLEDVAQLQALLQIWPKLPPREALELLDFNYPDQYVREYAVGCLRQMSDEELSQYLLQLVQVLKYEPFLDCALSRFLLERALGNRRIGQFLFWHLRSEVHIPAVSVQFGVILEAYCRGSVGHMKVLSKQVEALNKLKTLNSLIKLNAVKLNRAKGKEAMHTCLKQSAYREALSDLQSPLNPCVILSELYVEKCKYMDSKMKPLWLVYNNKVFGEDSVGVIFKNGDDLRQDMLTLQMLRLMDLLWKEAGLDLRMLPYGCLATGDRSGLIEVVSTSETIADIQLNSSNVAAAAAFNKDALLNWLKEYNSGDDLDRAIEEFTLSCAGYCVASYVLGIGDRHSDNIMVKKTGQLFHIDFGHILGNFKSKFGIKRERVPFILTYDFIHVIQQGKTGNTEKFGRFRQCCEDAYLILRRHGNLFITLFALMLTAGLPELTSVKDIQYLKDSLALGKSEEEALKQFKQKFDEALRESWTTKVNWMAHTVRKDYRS
T3 sequence (P27986 whole entry partner): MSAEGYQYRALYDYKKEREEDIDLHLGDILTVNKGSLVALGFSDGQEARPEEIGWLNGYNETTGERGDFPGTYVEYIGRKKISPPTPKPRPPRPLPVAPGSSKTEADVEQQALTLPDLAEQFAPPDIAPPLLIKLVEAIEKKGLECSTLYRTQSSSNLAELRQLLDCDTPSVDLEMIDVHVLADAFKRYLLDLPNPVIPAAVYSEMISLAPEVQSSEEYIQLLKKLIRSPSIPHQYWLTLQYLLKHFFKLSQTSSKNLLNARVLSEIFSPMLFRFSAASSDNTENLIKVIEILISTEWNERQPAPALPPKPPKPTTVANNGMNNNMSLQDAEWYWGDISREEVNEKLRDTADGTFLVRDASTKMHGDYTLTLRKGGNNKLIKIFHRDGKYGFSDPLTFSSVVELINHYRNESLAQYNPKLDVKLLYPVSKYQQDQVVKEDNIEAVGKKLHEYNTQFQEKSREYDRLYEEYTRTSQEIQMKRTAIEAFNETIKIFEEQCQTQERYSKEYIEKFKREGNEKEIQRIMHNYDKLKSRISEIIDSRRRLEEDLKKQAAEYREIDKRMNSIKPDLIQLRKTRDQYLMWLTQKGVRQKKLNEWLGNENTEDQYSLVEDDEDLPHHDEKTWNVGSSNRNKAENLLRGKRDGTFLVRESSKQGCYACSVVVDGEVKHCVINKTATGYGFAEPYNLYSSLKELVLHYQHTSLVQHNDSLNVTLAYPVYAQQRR
T1 sequence (O00329 whole entry): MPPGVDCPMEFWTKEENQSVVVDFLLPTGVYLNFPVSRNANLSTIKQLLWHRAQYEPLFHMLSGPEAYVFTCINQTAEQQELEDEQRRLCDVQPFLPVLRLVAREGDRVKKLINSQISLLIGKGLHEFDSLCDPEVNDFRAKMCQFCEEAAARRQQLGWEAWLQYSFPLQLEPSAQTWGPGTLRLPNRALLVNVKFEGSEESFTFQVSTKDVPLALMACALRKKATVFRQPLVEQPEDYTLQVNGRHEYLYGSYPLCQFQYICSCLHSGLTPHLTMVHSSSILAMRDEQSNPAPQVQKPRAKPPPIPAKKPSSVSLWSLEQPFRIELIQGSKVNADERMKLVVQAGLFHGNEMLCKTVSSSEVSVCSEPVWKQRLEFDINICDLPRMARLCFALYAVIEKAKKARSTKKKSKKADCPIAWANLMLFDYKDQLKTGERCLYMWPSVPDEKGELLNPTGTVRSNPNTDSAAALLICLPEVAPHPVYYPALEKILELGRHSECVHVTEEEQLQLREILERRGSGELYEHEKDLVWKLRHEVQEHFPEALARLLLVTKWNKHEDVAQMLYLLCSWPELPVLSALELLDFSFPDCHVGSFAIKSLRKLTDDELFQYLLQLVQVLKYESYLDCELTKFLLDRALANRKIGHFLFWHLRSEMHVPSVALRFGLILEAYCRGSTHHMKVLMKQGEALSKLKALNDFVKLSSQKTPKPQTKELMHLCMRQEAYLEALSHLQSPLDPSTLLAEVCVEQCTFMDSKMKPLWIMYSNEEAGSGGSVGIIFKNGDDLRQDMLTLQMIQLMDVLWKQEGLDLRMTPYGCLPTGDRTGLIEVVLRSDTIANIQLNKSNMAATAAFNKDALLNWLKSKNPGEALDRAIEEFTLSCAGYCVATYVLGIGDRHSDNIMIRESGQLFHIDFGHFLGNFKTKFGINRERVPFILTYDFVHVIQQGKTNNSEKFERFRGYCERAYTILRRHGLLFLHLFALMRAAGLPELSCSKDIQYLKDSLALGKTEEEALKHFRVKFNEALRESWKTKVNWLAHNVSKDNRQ
T1 sequence (P27986 whole entry partner): as the sequence (P27986 whole entry partner) above
T2 sequence (P48736 whole entry): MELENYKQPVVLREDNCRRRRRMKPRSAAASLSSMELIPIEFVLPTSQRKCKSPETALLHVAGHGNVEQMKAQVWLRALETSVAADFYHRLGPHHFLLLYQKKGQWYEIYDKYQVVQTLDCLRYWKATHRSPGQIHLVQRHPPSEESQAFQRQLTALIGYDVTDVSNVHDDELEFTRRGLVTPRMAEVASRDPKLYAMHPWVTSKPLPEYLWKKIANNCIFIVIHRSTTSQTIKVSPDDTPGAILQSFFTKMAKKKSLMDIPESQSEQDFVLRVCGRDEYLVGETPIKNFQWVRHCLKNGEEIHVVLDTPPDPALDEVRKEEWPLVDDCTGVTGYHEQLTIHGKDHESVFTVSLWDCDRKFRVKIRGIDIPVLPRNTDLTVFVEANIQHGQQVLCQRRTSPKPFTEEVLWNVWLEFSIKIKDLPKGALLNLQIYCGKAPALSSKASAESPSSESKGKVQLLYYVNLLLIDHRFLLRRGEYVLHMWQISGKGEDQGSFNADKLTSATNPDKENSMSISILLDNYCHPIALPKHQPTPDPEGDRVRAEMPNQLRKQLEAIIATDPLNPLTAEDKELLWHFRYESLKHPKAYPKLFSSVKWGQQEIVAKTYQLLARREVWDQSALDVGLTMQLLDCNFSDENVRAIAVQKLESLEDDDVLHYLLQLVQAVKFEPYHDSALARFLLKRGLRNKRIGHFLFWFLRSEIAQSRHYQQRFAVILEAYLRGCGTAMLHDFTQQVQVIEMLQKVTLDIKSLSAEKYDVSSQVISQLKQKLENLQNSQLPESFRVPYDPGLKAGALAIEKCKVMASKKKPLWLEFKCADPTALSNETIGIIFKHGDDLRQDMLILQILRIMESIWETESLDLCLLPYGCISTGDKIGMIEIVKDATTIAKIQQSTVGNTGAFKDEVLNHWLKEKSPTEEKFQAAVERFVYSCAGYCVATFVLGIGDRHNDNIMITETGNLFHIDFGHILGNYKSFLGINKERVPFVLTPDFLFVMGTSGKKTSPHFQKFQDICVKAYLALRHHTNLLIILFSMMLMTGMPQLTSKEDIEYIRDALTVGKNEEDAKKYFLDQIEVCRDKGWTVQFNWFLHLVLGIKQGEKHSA
T2 sequence (Q8WYR1 whole entry partner): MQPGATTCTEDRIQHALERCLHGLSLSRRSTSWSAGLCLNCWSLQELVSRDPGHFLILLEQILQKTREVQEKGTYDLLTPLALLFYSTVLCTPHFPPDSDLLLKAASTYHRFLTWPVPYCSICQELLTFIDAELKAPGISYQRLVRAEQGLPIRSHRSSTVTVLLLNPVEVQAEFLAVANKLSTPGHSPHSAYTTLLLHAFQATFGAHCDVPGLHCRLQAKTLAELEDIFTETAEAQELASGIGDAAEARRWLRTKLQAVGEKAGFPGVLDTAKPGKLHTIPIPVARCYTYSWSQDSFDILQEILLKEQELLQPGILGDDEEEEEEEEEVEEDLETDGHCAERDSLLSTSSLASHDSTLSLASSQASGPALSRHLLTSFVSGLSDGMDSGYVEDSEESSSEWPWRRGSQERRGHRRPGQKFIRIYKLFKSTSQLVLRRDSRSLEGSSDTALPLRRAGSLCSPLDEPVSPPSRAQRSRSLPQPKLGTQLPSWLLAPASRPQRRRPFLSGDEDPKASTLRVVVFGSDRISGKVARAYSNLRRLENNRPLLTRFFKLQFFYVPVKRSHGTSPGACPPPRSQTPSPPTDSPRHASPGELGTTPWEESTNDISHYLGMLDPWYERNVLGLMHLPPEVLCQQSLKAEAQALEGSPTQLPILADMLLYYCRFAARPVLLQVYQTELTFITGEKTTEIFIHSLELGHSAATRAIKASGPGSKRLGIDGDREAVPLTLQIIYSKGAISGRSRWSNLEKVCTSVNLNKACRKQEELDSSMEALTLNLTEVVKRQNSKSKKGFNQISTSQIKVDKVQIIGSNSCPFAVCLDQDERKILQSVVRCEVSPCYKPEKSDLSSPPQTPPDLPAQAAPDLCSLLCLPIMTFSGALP

Row | SMILES | IC50 (PI3Kδ) [nM] | IC50 (PI3Kγ) [nM] | IC50 (PI3Kβ) [nM]
1 | C[C@H](Nc1ncnc(N)c1C#Cc1ccc(F)cn1)c1nc2cccc(Cl)c2c(=O)n1N1CCNCC1 [Compound 58, (S)-2-(1-((6-amino-5-((5-fluoropyridin-2-yl)ethynyl)pyrimidin-4-yl)amino)ethyl)-5-chloro-3-(piperazin-1-yl)quinazolin-4(3H)-one] | 2 | > 10000 | 10
2 | Cc1nc(N)c(C(=O)N[C@@H](C)c2nc3cccc(Cl)c3c(=O)n2N2CCNCC2)nc1C [Compound 59, (S)-3-amino-N-(1-(5-chloro-4-oxo-3-(piperazin-1-yl)-3,4-dihydroquinazolin-2-yl)ethyl)-5,6-dimethylpyrazine-2-carboxamide] | 280 | > 10000 | 73
3 | Cc1cccc2nc([C@H](C)Nc3ncnc(N)c3C#N)n(C3CCNCC3)c(=O)c12 [Compound 60, (S)-4-amino-6-((1-(5-methyl-4-oxo-3-(piperidin-4-yl)-3,4-dihydroquinazolin-2-yl)ethyl)amino)pyrimidine-5-carbonitrile] | 5 | > 10000 | 130
4 | C[C@H](Nc1nc(N)nc(N)c1C#N)c1nc2cccc(Cl)c2c(=O)n1N1CCNC(C(F)(F)F)C1 (stereo partly drawn) [Compound 61, 2,4-diamino-6-(((1S)-1-(5-chloro-4-oxo-3-(3-(trifluoromethyl)piperazin-1-yl)-3,4-dihydroquinazolin-2-yl)ethyl)amino)pyrimidine-5-carbonitrile] | 0.9 | 400 | 150
5 | C[C@H](Nc1ncnc(N)c1C#N)c1nc2cccc(Cl)c2c(=O)n1N1CCNC(C(F)(F)F)C1 (stereo partly drawn) [Compound 62, 4-amino-6-(((1S)-1-(5-chloro-4-oxo-3-(3-(trifluoromethyl)piperazin-1-yl)-3,4-dihydroquinazolin-2-yl)ethyl)amino)pyrimidine-5-carbonitrile] | 9 | 8400 | 820
6 | C[C@H](Nc1ncnc(N)c1C#N)c1nc2cccc(Cl)c2c(=O)n1N1CCNC2(CC2)C1 [Compound 63, (S)-4-amino-6-((1-(5-chloro-4-oxo-3-(4,7-diazaspiro[2.5]octan-7-yl)-3,4-dihydroquinazolin-2-yl)ethyl)amino)pyrimidine-5-carbonitrile] | 2 | > 10000 | 5
7 | C[C@H](Nc1ncnn2ccnc12)c1nc2cccc(Cl)c2c(=O)n1N1CCCNCC1 [Compound 64, (S)-5-chloro-3-(1,4-diazepan-1-yl)-2-(1-(imidazo[2,1-f][1,2,4]triazin-4-ylamino)ethyl)quinazolin-4(3H)-one] | 9 | > 10000 | 94
8 | C[C@H](Nc1ncnn2ccnc12)c1nc2cccc(Cl)c2c(=O)n1N1CCNCC1 [Compound 65, (S)-5-chloro-2-(1-(imidazo[2,1-f][1,2,4]triazin-4-ylamino)ethyl)-3-(piperazin-1-yl)quinazolin-4(3H)-one] | 8 | > 10000 | 42
9 | C[C@H](Nc1ncnc(N)c1C#N)c1nc2cccc(Cl)c2c(=O)n1N1CCCNCC1 [Compound 66, (S)-4-amino-6-((1-(5-chloro-3-(1,4-diazepan-1-yl)-4-oxo-3,4-dihydroquinazolin-2-yl)ethyl)amino)pyrimidine-5-carbonitrile] | 13 | > 10000 | 370
10 | C[C@H](Nc1ncnc(N)c1C#N)c1nc2cccc(Cl)c2c(=O)n1N1CCCNCC1 [Compound 67, (S)-4-amino-6-((1-(5-chloro-3-(1,4-diazepan-1-yl)-4-oxo-3,4-dihydroquinazolin-2-yl)ethyl)amino)pyrimidine-5-carbonitrile] | 2 | > 10000 | 22
11 | CC[C@H](Nc1nc(N)nc(N)c1C#N)c1nc2cccc(Cl)c2c(=O)n1N1CCNCC1 [Compound 68, (S)-2,4-diamino-6-((1-(5-chloro-4-oxo-3-(piperazin-1-yl)-3,4-dihydroquinazolin-2-yl)propyl)amino)pyrimidine-5-carbonitrile] | 3 | 2100 | 1
